# Laboratory results as given in ChEMBL document CHEMBL1772974, “Optimization of potent, selective, and orally bioavailable pyrrolodinopyrimidine-containing inhibitors of heat shock protein 90. Identification of development candidate …” (J Med Chem, 2011).
# How the values were obtained:
# [1] = in vitro; conditions: human, Caco-2
# [2] = Permeability from basolateral to apical side of MDCK cells; assay type: ADME, cell-based, Canis lupus familiaris; conditions: dog, read-out: permeability
# [3] = Volume of distribution at steady state in Han Wistar rat at […], iv; assay type: ADME, organism-based; set-up: dose 2.5 mg/kg, route intravenous; conditions: in vivo, read-out: Vdss
# [4] = Oral bioavailability in Beagle dog at 0.5 mg/kg administered as solution in 40% PEG400 in saline; assay type: ADME, organism-based, Canis lupus familiaris; conditions: in vivo
# [5] = Solubility of the compound; assay type: physicochemical
# [6] = Volume of distribution at steady state in Beagle dog at 0.5 mg/kg, iv; assay type: ADME, organism-based, Canis lupus familiaris; set-up: dose 0.5 mg/kg, route intravenous; conditions: in vivo, read-out: Vdss
# [7] = Oral bioavailability in Han Wistar rat at 10 mg/kg administered as solution in 40% PEG400 in saline; assay type: ADME, organism-based; conditions: in vivo
# [8] = Oral bioavailability in Han Wistar rat at 10 mg/kg administered as suspension in 0.5% methylcellulose; assay type: ADME, organism-based; conditions: in vivo
# [9] = Oral bioavailability in Beagle dog at 0.5 mg/kg administered as suspension in 0.5% methylcellulose; assay type: ADME, organism-based, Canis lupus familiaris; conditions: in vivo
# [10] = Permeability from apical to basolateral side of MDCK cells; assay type: ADME, cell-based, Canis lupus familiaris; conditions: dog, read-out: permeability
# [11] = Toxicity in human A2058 cells xenografted po dosed nu/nu athymic mouse; assay type: organism-based; conditions: in vivo
smiles,measurement,setting,value
Nc1nc2c(c(-c3c(Cl)cc(Cl)cc3OCCn3cccn3)n1)CN(C(=O)NC1CCC1)C2,Papp A→B,[1],4.7 ×10⁻⁶ cm/s
Nc1nc2c(c(-c3c(Cl)cc(Cl)cc3OCCn3cccn3)n1)CN(C(=O)NC1CC1)C2,Papp A→B,[1],0.5 ×10⁻⁶ cm/s
Nc1nc2c(c(-c3c(Cl)cc(Cl)cc3OCCn3cccn3)n1)CN(C(=O)NC1CC(F)(F)C1)C2,Papp A→B,[1],1.5 ×10⁻⁶ cm/s
Nc1nc2c(c(-c3c(Cl)cc(Cl)cc3OCCn3cccn3)n1)CN(C(=O)NC13CC(C1)C3)C2,Papp A→B,[1],5 ×10⁻⁶ cm/s
Nc1nc2c(c(-c3c(Cl)cc(Cl)cc3OCCn3cccn3)n1)CN(C(=O)NCC(F)F)C2,Papp A→B,[1],1.2 ×10⁻⁶ cm/s
Nc1nc2c(c(-c3c(Cl)cc(Cl)cc3OCCn3cccn3)n1)CN(C(=O)NCC(F)(F)F)C2,Papp A→B,[1],0.96 ×10⁻⁶ cm/s
Cc1cc(Cl)cc(OCCn2cc(F)cn2)c1-c1nc(N)nc2c1CN(C(=O)NCC(C)(F)F)C2,Papp B→A,[2],11 ×10⁻⁶ cm/s
same,Vd,[3],9.6 L/kg
same,bioavailability,[4],63%
same,solubility,[5],200 µM
same,Vd,[6],8 L/kg
same,bioavailability,[7],19%
same,bioavailability,[8],15%
same,bioavailability,[9],58%
same,Papp A→B,[10],2.4 ×10⁻⁶ cm/s
CO[C@H]1/C=C\C=C(/C)C(=O)NC2=CC(=O)C(NCCN(C)C)=C(C[C@@H](C)C[C@H](OC)[C@H](O)[C@@H](C)/C=C(\C)[C@@H]1OC(N)=O)C2=O [ALVESPIMYCIN],MTD,[11],10 mg/kg
